In patent US20090018134A1, “Compounds - 945” (AstraZeneca AB, priority 2007, published 2009):

biological target: T1, mTOR (Homo sapiens, UniProt P42345); assay: In Vitro mTOR Kinase Assay (Echo), Test (a)(ii); assay type: biochemical; details: table of enzyme assay Test (a)(ii); read-out: Test (a)(ii) IC50
T1 construct: FLAG; made in house
How it was run: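 AlphaScreen read-out: biotinylated substrate phosphorylation was detected with anti-p70 S6K (T389) 1A5 antibody, Protein A acceptor and streptavidin donor beads after overnight dark incubation at room temperature. Enzyme was FLAG-mTOR 1362-2549 from stable HEK293 cells.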

T1 sequence (P42345 1362-2549): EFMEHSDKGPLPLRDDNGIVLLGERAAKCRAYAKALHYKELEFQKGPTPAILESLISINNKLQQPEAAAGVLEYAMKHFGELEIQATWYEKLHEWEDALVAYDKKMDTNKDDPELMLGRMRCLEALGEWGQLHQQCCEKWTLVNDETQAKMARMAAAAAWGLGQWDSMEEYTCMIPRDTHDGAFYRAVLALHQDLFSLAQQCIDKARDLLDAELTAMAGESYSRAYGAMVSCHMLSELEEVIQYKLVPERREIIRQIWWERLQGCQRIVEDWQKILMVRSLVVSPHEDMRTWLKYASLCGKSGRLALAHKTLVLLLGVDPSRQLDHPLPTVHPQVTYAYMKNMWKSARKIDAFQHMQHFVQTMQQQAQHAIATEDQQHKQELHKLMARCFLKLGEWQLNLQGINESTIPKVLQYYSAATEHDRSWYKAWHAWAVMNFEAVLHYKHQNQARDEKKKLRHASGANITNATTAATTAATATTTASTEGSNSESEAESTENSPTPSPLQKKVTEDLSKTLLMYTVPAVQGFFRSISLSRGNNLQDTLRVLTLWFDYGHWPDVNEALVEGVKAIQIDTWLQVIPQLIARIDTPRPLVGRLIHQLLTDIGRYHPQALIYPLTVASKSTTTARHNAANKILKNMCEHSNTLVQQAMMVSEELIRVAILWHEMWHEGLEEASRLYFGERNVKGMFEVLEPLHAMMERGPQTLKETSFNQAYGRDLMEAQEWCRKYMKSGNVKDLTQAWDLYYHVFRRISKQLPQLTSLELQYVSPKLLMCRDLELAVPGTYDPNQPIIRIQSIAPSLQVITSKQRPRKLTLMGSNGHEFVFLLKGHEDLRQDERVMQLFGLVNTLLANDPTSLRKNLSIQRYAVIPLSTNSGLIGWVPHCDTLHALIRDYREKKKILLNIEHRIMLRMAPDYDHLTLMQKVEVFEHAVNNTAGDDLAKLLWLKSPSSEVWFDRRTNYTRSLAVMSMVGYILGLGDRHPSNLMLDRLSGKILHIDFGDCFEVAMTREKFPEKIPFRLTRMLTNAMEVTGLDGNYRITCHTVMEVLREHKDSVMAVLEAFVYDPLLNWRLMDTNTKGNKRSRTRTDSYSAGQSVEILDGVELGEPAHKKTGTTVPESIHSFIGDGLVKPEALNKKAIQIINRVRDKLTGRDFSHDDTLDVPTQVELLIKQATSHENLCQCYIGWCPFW

| SMILES | IC50 |
| --- | --- |
| C[C@H]1COCCN1c1cc(C2(S(=O)(=O)c3ccc(F)cc3)CC2)nc(-c2ccc(NC(=S)NC3CC3)cc2)n1 [Example 37t, 3-cyclopropyl-1-[4-[4-[1-(4-fluorophenyl)sulfonylcyclopropyl]-6-[(3S)-3-methylmorpholin-4-yl]pyrimidin-2-yl]phenyl]thiourea] | 8.89 nM |
| C[C@H]1COCCN1c1cc(C2(S(=O)(=O)c3ccc(F)cc3)CC2)nc(-c2ccc(NC(=S)NCCO)cc2)n1 [Example 37u, 1-[4-[4-[1-(4-fluorophenyl)sulfonylcyclopropyl]-6-[(3S)-3-methylmorpholin-4-yl]pyrimidin-2-yl]phenyl]-3-(2-hydroxyethyl)thiourea] | 0.395 nM |
| C[C@H]1COCCN1c1cc(C2(S(=O)(=O)c3ccccc3)CC2)nc(-c2ccc(NC(=S)NC3CC3)cc2)n1 [Example 37v, 1-[4-[4-[1-(benzenesulfonyl)cyclopropyl]-6-[(3S)-3-methylmorpholin-4-yl]pyrimidin-2-yl]phenyl]-3-cyclopropylthiourea] | 5.49 nM |
| C[C@H]1COCCN1c1cc(C2(S(=O)(=O)c3ccccc3)CC2)nc(-c2ccc(NC(=S)Nc3cnn(C)c3)cc2)n1 [Example 37w, 1-[4-[4-[1-(benzenesulfonyl)cyclopropyl]-6-[(3S)-3-methylmorpholin-4-yl]pyrimidin-2-yl]phenyl]-3-(1-methylpyrazol-4-yl)thiourea] | 1.37 nM |
| C[C@H]1COCCN1c1cc(C2(S(=O)(=O)c3ccccc3)CC2)nc(-c2ccc(NC(=S)NCCCO)cc2)n1 [Example 37x, 1-[4-[4-[1-(benzenesulfonyl)cyclopropyl]-6-[(3S)-3-methylmorpholin-4-yl]pyrimidin-2-yl]phenyl]-3-(3-hydroxypropyl)thiourea] | 9.44 nM |
| CCNC(=S)Nc1ccc(-c2nc(N3CCOC[C@@H]3C)cc(C3(S(=O)(=O)c4ccccc4)CC3)n2)cc1 [Example 37z, 3-[4-[4-[1-(benzenesulfonyl)cyclopropyl]-6-[(3S)-3-methylmorpholin-4-yl]pyrimidin-2-yl]phenyl]-1-ethylthiourea] | 4.81 nM |
| Cc1nnc(S(=O)(=O)C2(c3cc(N4CCOC[C@@H]4C)nc(-c4ccc(NC(=O)NC5CC5)cc4)n3)CC2)s1 [Example 38, 3-Cyclopropyl-1-[4-[4-[(3S)-3-methylmorpholin-4-yl]-6-[1-[(5-methyl-1,3,4-thiadiazol-2-yl)sulfonyl]cyclopropyl]pyrimidin-2-yl]phenyl]urea] | 1.31 nM |
| CNC(=O)Nc1ccc(-c2nc(N3CCOC[C@@H]3C)cc(C3(S(=O)(=O)c4nnc(C)s4)CC3)n2)cc1 [Example 38a] | 0.918 nM |
| C[C@H]1COCCN1c1cc(C2(S(=O)(=O)c3nccs3)CC2)nc(-c2ccc(NC(=O)NC3CC3)cc2)n1 [Example 39, 3-Cyclopropyl-1-[4-[4-[(3S)-3-methylmorpholin-4-yl]-6-[1-(1,3-thiazol-2-ylsulfonyl)cyclopropyl]pyrimidin-2-yl]phenyl]urea] | 0.351 nM |
| CNC(=O)Nc1ccc(-c2nc(N3CCOC[C@@H]3C)cc(C3(S(=O)(=O)c4nccs4)CC3)n2)cc1 [Example 39a] | 0.502 nM |
| CNC(=O)Nc1ccc(-c2nc(N3CCOC[C@@H]3C)cc(C3(S(=O)(=O)c4ncc[nH]4)CC3)n2)cc1 [Example 40] | 4.36 nM |
| C[C@H]1COCCN1c1cc(C2(S(C)(=O)=O)CC2)nc(-c2ccc(NC(=S)NCCC#N)cc2)n1 [Example 41, 3-(2-Cyanoethyl)-1-[4-[4-[(3S)-3-methylmorpholin-4-yl]-6-(1-methylsulfonylcyclopropyl)pyrimidin-2-yl]phenyl]thiourea] | 30.8 nM |
| Cc1csc(S(=O)(=O)C2(c3cc(N4CCOCC4)nc(-c4ccc(NC(=O)NC5CC5)cc4)n3)CC2)n1 [Example 42, 3-Cyclopropyl-1-[4-[4-[1-[(4-methyl-1,3-thiazol-2-yl)sulfonyl]cyclopropyl]-6-morpholin-4-ylpyrimidin-2-yl]phenyl]urea] | 0.705 nM |
| Cc1csc(S(=O)(=O)C2(c3cc(N4CCOCC4)nc(-c4ccc(NC(=O)NCCO)cc4)n3)CC2)n1 [Example 42a, 3-(2-hydroxyethyl)-1-[4-[4-[1-[(4-methyl-1,3-thiazol-2-yl)sulfonyl]cyclopropyl]-6-morpholin-4-ylpyrimidin-2-yl]phenyl]urea] | 2.61 nM |
| Cc1csc(S(=O)(=O)C2(c3cc(N4CCOCC4)nc(-c4ccc(NC(=O)Nc5cnn(C)c5)cc4)n3)CC2)n1 [Example 42b, 3-(1-methylpyrazol-4-yl)-1-[4-[4-[1-[(4-methyl-1,3-thiazol-2-yl)sulfonyl]cyclopropyl]-6-morpholin-4-ylpyrimidin-2-yl]phenyl]urea] | 5.35 nM |
| CNC(=O)Nc1ccc(-c2nc(N3CCOCC3)cc(C3(S(=O)(=O)c4nc(C)cs4)CC3)n2)cc1 [Example 42c, 3-methyl-1-[4-[4-[1-[(4-methyl-1,3-thiazol-2-yl)sulfonyl]cyclopropyl]-6-morpholin-4-ylpyrimidin-2-yl]phenyl]urea] | 3.6 nM |
| Cc1csc(S(=O)(=O)C2(c3cc(N4CCOCC4)nc(-c4ccc(NC(=O)NC5CCC5)cc4)n3)CC2)n1 [Example 42e, 3-cyclobutyl-1-[4-[4-[1-[(4-methyl-1,3-thiazol-2-yl)sulfonyl]cyclopropyl]-6-morpholin-4-ylpyrimidin-2-yl]phenyl]urea] | 2.57 nM |
| Cc1csc(S(=O)(=O)C2(c3cc(N4CCOCC4)nc(-c4ccc(NC(=O)NCCC#N)cc4)n3)CC2)n1 [Example 42f, 3-(2-cyanoethyl)-1-[4-[4-[1-[(4-methyl-1,3-thiazol-2-yl)sulfonyl]cyclopropyl]-6-morpholin-4-ylpyrimidin-2-yl]phenyl]urea] | 2.64 nM |
| CCCNC(=O)Nc1ccc(-c2nc(N3CCOCC3)cc(C3(S(=O)(=O)c4nc(C)cs4)CC3)n2)cc1 [Example 42g, 3-[4-[4-[1-[(4-methyl-1,3-thiazol-2-yl)sulfonyl]cyclopropyl]-6-morpholin-4-ylpyrimidin-2-yl]phenyl]-1-propylurea] | 4.01 nM |
| Cc1csc(S(=O)(=O)C2(c3cc(N4CCOCC4)nc(-c4ccc(NC(=O)NC(C)C)cc4)n3)CC2)n1 [Example 42h, 1-[4-[4-[1-[(4-methyl-1,3-thiazol-2-yl)sulfonyl]cyclopropyl]-6-morpholin-4-ylpyrimidin-2-yl]phenyl]-3-propan-2-ylurea] | 4.12 nM |
| C[C@H]1COCCN1c1cc(C2(S(=O)(=O)CCCO)CCC2)nc(-c2ccc(NC(=O)NC3CC3)cc2)n1 [Example 43, 3-Cyclopropyl-1-[4-[4-[1-(3-hydroxypropylsulfonyl)cyclobutyl]-6-[(3S)-3-methylmorpholin-4-yl]pyrimidin-2-yl]phenyl]urea] | 5.39 nM |
| CNC(=O)Nc1ccc(-c2nc(N3CCOC[C@@H]3C)cc(C3(S(=O)(=O)CCCO)CCC3)n2)cc1 [Example 43a, 1-[4-[4-[1-(3-hydroxypropylsulfonyl)cyclobu-tyl]-6-[(3S)-3-methylmorpholin-4-yl]pyrimidin-2-yl]phenyl]-3-methylurea] | 4.79 nM |
| C[C@H]1COCCN1c1cc(C2(S(=O)(=O)CCCO)CCC2)nc(-c2ccc(NC(=O)NCCO)cc2)n1 [Example 43b, 3-(2-hydroxyethyl)-1-[4-[4-[1-(3-hydroxypropylsulfonyl)cyclobu-tyl]-6-[(3S)-3-methylmorpholin-4-yl]pyrimidin-2-yl]phenyl]urea] | 7.51 nM |
